In general, melting point refers to the temperature, or range, at which the solid turns liquid. Molecule `COc1c(C)c(C)c2c(c1C)CC(CC(=O)O)O2` (racemic) registered a melting point of 74 to 76 °C.

Regarding `CCCCC(=O)c1ccc(-c2ccccc2)cc1`, the melting point fell in the range of 79 to 79.5 °C.

Consider `CS[C@@H]1CC(=O)N(Cc2ccc(Oc3ccc(F)cc3)nc2)C1`, for which the melting point was in the range of 94 to 95 °C.

The molecule `NC(=O)c1cccc2nnsc12` had a melting point of 270 to 272 °C.

Turning to `Cn1cccc1CNCC1(c2cccc(C(F)(F)F)c2)CCN(C(=O)CN2CCN(c3cnccn3)CC2)CC1`, the melting point is 104 to 105 °C.

Turning to `Cc1cc2c(-c3ccccc3)noc2c2c1OC(CO)C2` (centres undefined), the melting point was 130 to 133 °C.

In the case of `CCN(CC)C(=O)c1cc(-c2ccccc2)c2ccccc2c1-c1ccccc1`, the melting point lay within 111 to 113 °C.

In turn, `CN1CCCc2cc(CC3SC(=O)NC3=O)ccc21` (centres undefined) had a melting point of 122 to 125 °C.

In turn, `Cc1ccc(C2=NC(C)(C)C(c3ccncc3)C2)cc1` (centres undefined) yielded a melting point of 102 °C.

In turn, `O=C1OCCC12Sc1cc(NO)ccc1C2=O` (centres undefined) showed a melting point of 184 to 186 °C.

In the case of `CC(Cn1ccnn1)n1nnc2cc3c(=O)n(C(C)Cn4ccnn4)nnc3cc2c1=O` (centres undefined), the melting point lay in the range of 192 to 195 °C.

The molecule `CCCOc1ccc(CCC(=O)O)cc1-c1nc2c(C)cccc2c(=O)[nH]1` gave a melting point of 215 to 216 °C.

In turn, `Nc1c(-c2cc(Cl)ccc2O)c2ccc(C(F)(F)F)cc2[nH]c1=O` came in with a melting point of 225 to 227 °C.

On to `CCN1C(=O)CCCc2cc(Nc3ncc(Cl)c(Nc4ccc(N5CCOCC5)cc4OC)n3)c(OC)cc21`, for which the melting point was 212 to 214 °C.

Molecule `COc1ccc(C2CC(c3ccc(F)cc3)=NN2c2ccc(C(=O)O)cc2)cc1` (centres undefined) yielded a melting point of 218 °C.

`O=C1c2ccccc2C(=O)N1CCCCCCN1CCC(C2(c3ccc(F)cc3)OCCO2)CC1`: the melting point fell in the range of 72 to 76 °C.

Molecule `Nc1nc2ccccc2c2c1ncn2CCCCNC(=O)c1ccc(C(=O)c2ccccc2)cc1` displayed a melting point of 159 to 161 °C.

For the molecule `Nc1cc(N2CCOCC2)ccc1[N+](=O)[O-]`, the melting point fell in the range of 177 to 178 °C.

For `COc1ccc(-n2cnc(-c3cc(OC)c(OC)c(OC)c3)c2-c2ccc(OC)c(O)c2)cc1`, the melting point fell in the range of 65 to 67 °C.

`Cc1nc2cc(Cl)c(C)c(Cl)c2o1`: the melting point fell in the range of 80 to 82 °C.

`CCOC(=O)c1ncn2c1CN(C)C(=O)c1cnccc1-2` came in with a melting point of 205 to 206 °C.

As to `CC(=O)NCc1ccc2c(c1)N(C1CCN(CCc3cccc(F)c3)CC1)CC2`, the melting point lay in the range of 161 to 162 °C.

`O=Cc1cc2n(c1)CCc1ccccc1C2=O` had a melting point of 135 to 136 °C.

The molecule `Nc1c(F)c(Cl)c(O)c(Cl)c1F` had a melting point of 151 °C.

Regarding `CC(=O)Nc1ccc(OCC2CCN(CC(O)COc3cccc4c3CCN4C=O)CC2)cc1` (centres undefined), the melting point lay in the range of 177 to 179 °C.

For `CC(=O)Nc1ccc2c(c1)NC(=O)C2CC(C)C` (centres undefined), the melting point fell in the range of 214 to 216 °C.

Turning to `C=CCSc1cc(C(=O)O)cc(N=Nc2cc(C(=O)O)cc(SCC=C)c2C(=O)c2ccccc2)c1C(=O)c1ccccc1`, the melting point is 162 to 163 °C.

The molecule `C=C1CCC2=C(C1)CC(C)C1C2CCC2(C)C(O)CCC12` (centres undefined) had a melting point of 112 °C.

`C=CCSc1cc(C(=O)O)cc([N+](=O)[O-])c1-c1ccccc1` returned a melting point of 152 to 154 °C.

`CCC[C@H]1CC[C@H](c2ncc(C(=O)OCC)c(O)n2)CC1` came in with a melting point of 156 to 157 °C.

`Cn1c(=O)oc2cc3c(cc21)C1(CO3)C(=O)N(C(c2ccccc2)c2ccccc2)c2ccccc21` (centres undefined) had a melting point above 250 °C.

The molecule `CCCc1c(-c2ccncc2)[nH]c(-c2ccncc2)c1C(=O)OCC` returned a melting point of 209 to 211 °C.

As for `CC(=O)SC[C@@H](C)C(=O)N1C(=O)N(C)C[C@H]1C(=O)OC(C)(C)C`, the melting point came out at 104 °C.

The molecule `CC(c1ccc(-c2ccc(OCc3nc4ccccc4s3)cc2)c(F)c1)N(O)C(N)=O` (centres undefined) gave a melting point of 185 to 186 °C.

Regarding `N#CCSC(=S)SCc1ccc(Cl)cc1`, the melting point was 41 to 43 °C.

As to `O=c1c2c([nH]n1-c1ccc(Cl)cc1)-c1cc(Cl)ccc1SC2`, the melting point fell in the range of 237 to 240 °C.

Regarding `CS(=O)(=O)N1CCN(S(=O)(=O)c2ccc3c(c2)S(=O)(=O)NC(C2CCCCC2)N3)CC1` (centres undefined), the melting point lay within 272 to 274 °C.

Molecule `CCN(CC)C(=O)N[C@H]1CC[C@H](CCN2CCN(c3cccc4c3CCC4)CC2)CC1` gave a melting point of 157 to 159 °C.

Turning to `CCOC(=O)C1=C(C)N(Cc2ccccc2[N+](=O)[O-])C2=C(C(=O)OC2)C1c1ccccc1C(F)(F)F` (centres undefined), the melting point was found to be 233 °C.

The molecule `COc1cc(OC)nc(Oc2cccc(F)c2)n1` displayed a melting point of 45 °C.

For the molecule `COc1ccc(C2CC(=O)CCC2[N+](=O)[O-])cc1OC` (centres undefined), the melting point is 147 to 148 °C.

As to `O=C1N[C@H](Cc2ccc(C(F)(F)F)cc2)[C@H](c2ccccc2)O1` (racemic), the melting point was in the range of 158 to 159 °C.

The molecule `CCOC(=O)c1cc(CC)sc1Nc1ccc(C(F)(F)F)cc1[N+](=O)[O-]` registered a melting point of 102 °C.

`O=C(O)CCCCSc1nc2c(F)c(F)cc(F)c2s1` had a melting point of 56 to 58 °C.

In the case of `COc1ccc([C@@H]2Sc3ccccc3N(CCN(C)C)C(=O)[C@@H]2OC(=O)Nc2ccc(F)cc2)cc1` (relative stereo), the melting point is 153 to 154 °C.

In turn, `CCOC(=O)C(=O)Nc1ccc2cccc([N+](=O)[O-])c2c1NC(=O)C(=O)OCC` came in with a melting point of 173 to 175 °C.

For the molecule `COCCNc1cc(Cl)nc(-c2ccc(C)cc2)n1`, the melting point fell in the range of 141 to 144 °C.

`CC(C)c1ccc(Nc2cccc3c2C(=O)N(C2CCC(=O)NC2=O)C3=O)cc1` (centres undefined) gave a melting point of 138 to 140 °C.

`N#CCc1c[nH]c2ccc(CCS(N)(=O)=O)cc12` displayed a melting point of 109 to 111 °C.

`O=c1c2c(cnn1Cc1ccccc1)C(Cc1ccccc1)NCCO2` (centres undefined) returned a melting point of 70 °C.

On to `CC(=O)c1cc(C#N)c(=O)[nH]c1-c1ccccc1`, for which the melting point was in the range of 259 to 261 °C.

Molecule `CC(C)(C)OC(=O)NCc1ccsc1CC(=O)O` had a melting point of 62 to 63 °C.

For the molecule `COCCOc1cc2ncnc(NC3=CC(=O)C(N(C)C4CCCCC4)=CC3=O)c2cc1OC`, the melting point is 178 to 180 °C.

`CCC1(CC)c2ccccc2-c2ccccc21` displayed a melting point of 29 to 30 °C.

`CCOC(=O)c1ccc(NC(=O)OC(C)(C)C)nn1` showed a melting point of 87 to 88 °C.

Molecule `COc1ccc2cc([C@H](C)C(=O)OCC(CO[N+](=O)[O-])(CO[N+](=O)[O-])[N+](=O)[O-])ccc2c1` registered a melting point of 69 to 71 °C.

On to `O=C(O)C1=Cc2ccc(Br)cc2OC1C(F)(F)F` (centres undefined), for which the melting point was 198 to 200 °C.

For the molecule `CCc1c(-c2ccc(O)cc2)c2cc(C(C)=O)c3cc(OC)cc1n32`, the melting point lay in the range of 245 to 246 °C.

`C[C@]1(CN2CCN(C(=O)CSc3ccc(Cl)cc3)CC2)Cn2cc([N+](=O)[O-])nc2O1` yielded a melting point of 142 to 145 °C.

As to `COc1cc(C(=O)c2csc(Nc3ccc(Cl)cc3)n2)cc(OC)c1OC`, the melting point fell in the range of 165 to 166 °C.

The molecule `CCCCn1c(=O)n(Cc2ccccc2)c(=O)c2[nH]c(Cc3ccc(N4C(=O)CCC4=O)cc3)nc21` gave a melting point of 208 to 212 °C.

For `Oc1ccc(-c2cc3cc(Cl)ccc3o2)cc1`, the melting point was in the range of 216 to 218 °C.

Consider `CCN(CC)S(=O)(=O)c1cc(Br)c(N)c(Br)c1`, for which the melting point lay in the range of 186 to 187 °C.

Regarding `COc1cc(C=CC=C2SC(=O)NC2=O)cc(OC)c1OCc1ccccc1`, the melting point lay in the range of 217 to 218 °C.

On to `O=C1c2ccccc2C(=O)c2c1cccc2N1CCC(O)CC1`, for which the melting point came to 145 °C.

The molecule `O=C(COc1ccccc1C1NC(C(=O)O)CS1)NCCO[N+](=O)[O-]` (centres undefined) displayed a melting point of 99 to 103 °C.

The molecule `OCCCN1CCN(C(c2ccccc2)c2ccccc2)CC1` had a melting point of 126 to 128 °C.

In turn, `COc1ccc(Oc2c(N)cc(C(=O)O)cc2SCc2ccccc2)cc1` showed a melting point of 158 to 161 °C.

As for `Oc1ccc(SCCCN2CCOCC2)c(O)c1`, the melting point stood at 99 °C.

Regarding `CC(=O)Oc1ccc(C=C2CCCc3cc(C)cnc32)cc1`, the melting point was in the range of 119 to 122 °C.

`Cn1cc(CS(C)(=O)=O)c(=O)c2ccc(Cl)cc21` displayed a melting point of 215 to 216 °C.

Regarding `Cc1ccccc1SN(C)C(=O)Oc1cccc2c1OC(C)(C)C2`, the melting point was determined as 78 °C.

`CC(Cl)(Cl)C(NC(=O)c1cc(F)cc(F)c1)NC(=NC#N)Nc1ccc(Cl)nc1` (centres undefined) showed a melting point of 195 to 196 °C.

For the molecule `COc1cccc(C(O)(c2nccs2)C(F)(F)F)c1` (centres undefined), the melting point is 88 to 92 °C.

Regarding `CCOC(=O)c1ccc(NCCOc2ccc3ccccc3c2)cc1`, the melting point lay in the range of 158 to 162 °C.

Consider `CN(CCOc1ccc(CON=C(CCC(=O)O)c2ccccc2)cc1)c1ncccn1`, for which the melting point was in the range of 72 to 73 °C.

On to `CCN1C(=O)C(=CC=C2C=C(c3ccccc3)C=C3N2c2ccccc2C3(C)C)SC1=S`, for which the melting point was 270 to 272 °C.

Regarding `O=CN(O)C(CS(=O)(=O)c1ccc(Oc2ccc(OC(F)(F)F)cc2)cc1)C1CCC2(CC1)OCCO2` (centres undefined), the melting point was in the range of 176 to 177 °C.

In the case of `CC(C)(C)OC(=O)NC(CO)COc1noc2ccc(NC=O)cc12` (centres undefined), the melting point lay within 104 to 105 °C.

On to `CC(=O)NCCC1=C(C(C)C)Cc2cnc3c(c21)CCO3`, for which the melting point lay in the range of 164 to 166 °C.

Consider `CCS(=O)c1nsc(NC(=O)NC)c1C(N)=O` (centres undefined), for which the melting point was found to be 245 °C.

Take `COCCCCCC(=O)c1ccc(S(C)=O)cc1` (centres undefined): the melting point lay within 74 to 77 °C.

Take `COC(=O)c1ccc(OCCNC(=O)c2ccc(C(C)C)cc2)cc1`: the melting point lay within 89 to 91 °C.

Consider `CC(=O)OCCS(=O)(=O)C(F)(F)C(O)(Cn1cncn1)c1ccc(F)cc1F` (centres undefined), for which the melting point was 77 to 80 °C.

In turn, `CNC(=S)C1(c2cccnc2)CCCCC1=CCOc1ccc(O)cc1` (centres undefined) registered a melting point of 82 to 88 °C.

In turn, `Nc1ccc(C(=O)N2CCNC(=O)C2c2cccs2)cc1` (centres undefined) displayed a melting point of 181 to 182 °C.

The molecule `CCCCCCCCCOC(=O)Oc1ccc(-c2ccc(C#N)cc2)cc1` displayed a melting point of 53 to 53.1 °C.

The molecule `C[C@H](O)[C@H](CNC(=O)c1ccccc1)C(=O)O` yielded a melting point of 99 to 101 °C.

The molecule `NCc1cccc(-c2cnc(-c3ccc(Cl)c(Cl)c3)[nH]2)c1` displayed a melting point above 250 °C.

For the origin of these results see a melting point compilation (Tetko et al.; mined from patent text by program, amines drawn as free bases though some values may be those of a salt).
